The record followed here is patent US6699690B2, “Molecular constructs with a carcinoembryonic antigen (CEA) transcriptional regulatory sequence” (SmithKline Beecham Corporation, priority 1992, dated 2004).

Each structure is given as a SMILES string. Like-named read-outs stand apart in the source and are kept apart here.

For series [1], the system named is mixed WiDr and WiDr/CD tumors. Nature of the series: 5-FC treatment of subcutaneous mixed WiDr:WiDr/CD tumors in nude mice. It is filed as in vivo. To be noted: 5-FC ip 500 mg/kg; for Number of Cures: assessed day 130. The procedure:
(§1) The same mixtures of WiDr and WiDr/CD cells were injected subcutaneously into 10 individual nude mice for 10 individual injections of 10 million cells for each mixture (Table 3). By day 6, all mice had tumors of approximately the same size. On day 6, 5 mice of each group received a daily injection of 5-FC (ip at 500 mg/kg body weight) for approximately 20 consecutive days, then injections of 5-FC (ip at 500 mg/kg body weight) three times a week for 19 days. By 22 days post tumor cell injection, all nontreated animals had to be killed due to the large size of the tumors. Likewise, all animals with WiDr derived tumors which also received 5-FC treatment had to be sacrificed on day 22 due to the size of the tumors.

The test system of a further series is WiDr/CD tumors. Nature of the series: 5-FC treatment of subcutaneous WiDr/CD tumors in nude mice. It is filed as in vivo. As to conditions: WiDr/CD cells injected; 5-FC ip 500 mg/kg; assessed day 130. The procedure: as §1
A further series has as its system WiDr/CD cells. The experiment in a line: Inhibition of cell growth by 5-FC in WiDr/CD cells. It is filed as cell-based. As to conditions: Homo sapiens; WiDr/CD cells expressing cytosine deaminase, 3,000 cells per well, dosed from Day 3, read Day 8. The procedure: (§2) FIG. 23: 5-FC dose response of mixed WiDr and WiDr/CD cells. […] Beginning on Day 3, the cells were dosed with serially diluted 5-FC at the concentrations indicated on the x axis. The plates were stained and read on Day 8.
(§3) The following data illustrates and supports this important component of this invention. A human colorectal carcinoma cell line, WiDr, was genetically engineered to express cytosine deaminase (CD) by transfecting into the cell line the cloned gene for cytosine deaminase in an appropriate expression vector system for mammalian cells. WiDr cells expressing cytosine deaminase (WiDR/CD) and control cells not expressing cytosine deaminase (WiDr) were mixed together at different ratios, then plated at a total of 3,000 cells per well in a 96 well microtiter dish. […] Using the same mixtures of WiDr and WiDr/CD cells and again plating 3,000 total cells per well in a 96 well microtiter dish, log dose response curves were generated for the inhibition of cell growth by 5-FC.

In another series the test system is WiDr tumors. The experiment in a line: 5-FC treatment of subcutaneous WiDr tumors in nude mice. It counts as in vivo. To be noted: 5-FC ip 500 mg/kg. The procedure: as §1
Another series relates to WiDr cells. Nature of the series: Inhibition of cell growth by 5-FC in WiDr cells. It counts as cell-based. As to conditions: Homo sapiens; control WiDr cells, 3,000 cells per well, dosed from Day 3, read Day 8. The procedure: as §2, §3
Series [2] has as its system HepG2 cells. Nature of the series: ara-ATP formation from (3H)-labelled araM in infected HepG2 cells. It counts as cell-based, human. To be noted: HepG2 cells infected with either pCR74- or pCR78-containing viruses. The procedure: (§4) The replication-defective, full-length, artificial retroviruses containing the ALB/VZV TK chimaera or AFP/VZV TK chimaera were used to infect human hepatoma cell lines called HepG2 (ATCC HB 8065) and HuH7(provided by B. Mason, Fox Chase Cancer Center, Philadelphia, Pa.). Following infection and selection on 1 mg Geneticin/mL, the cells were assayed for VZV TK activity (Geneticin(antibiotic G418 sulphate) is a registered trademark of GIBCO). In addition, HepG2 cells were incubated in the presence of (^3H)-labeled 9-β-D-arabinofuranosyl-6-methoxy-9H-purine (designated as araM in the following tables and figures) with subsequent measurement of ara-ATP formation. Finally, HepG2 and HuH7 cells were cultured in the presence of the abovementioned compound and the IC50 (50% growth inhibition) was determined. Cells infected with no virus or N2 virus act as control samples for these experiments. The N2 viruses contain no VZV TK genetic material.
9-β-D-arabinofuranosyl-6-methoxy-9H-purine (designated as araM) can be selectively monophosphorylated by VZV TK with subsequent anabolism to cytotoxic ara-ATP.

In the next series the test system is HuH7 cells. Nature of the series: Growth inhibition by araM in HuH7 cells. It counts as cell-based. To be noted: Homo sapiens, Huh-7, 120 h, 5 days, read-out: IC50 (50% growth inhibition). The procedure:
as §4
(§5) HepG2 and HuH7 cells infected with the replication-defective, full-length, artificial retroviruses containing the ALB/VZV TK chimaera (pCR74) or AFP/VZV TK (pCR78) chimaera were incubated in the presence of varying amounts of 9-β-D-arabinofuranosyl-6-methoxy-9H-purine for 5 days and growth inhibition was determined as measured by cell number and DNA content.

The subject of series [3] is HepG2 cells. The experiment in a line: Growth inhibition by araM in HepG2 cells. As to conditions: HepG2 infected with ALB/VZV TK (pCR74) virus, 5 days, read-out: IC50 (50% growth inhibition). It counts as cell-based, human. The procedure: as §4, §5
The test system of series [4] is WiDR, MCF7, Detroit 555, and SW480 nonhepatoma cell lines. Nature of the series: Growth inhibition by araM in infected nonhepatoma cell lines. As to conditions: four nonhepatoma cell lines infected with pCR74 or pCR78 virus. It counts as cell-based, human. The procedure:
Four human, nonhepatoma cell lines were infected with replication-defective, full-length, artifical retroviruses containing the ALB/VZV TK chimaera (pCR74) or AFP/VZV TK chimaera (pCR78). These cell lines were WiDR (ATCC CCL218), MCF7 (ATCC HTB22), Detroit 555 (ATCC CCL110), and SW480 (ATCC CCL228). Subsequent to infection and selection on Geneticin (antibiotic G418 sulphate; registered trademark of GIBCO), these cells were assayed for VZV TK activity and growth inhibition in the presence of 9-β-D-arabinofuranosyl-6-methoxy-9H-purine, as described above. There was no increase in VZV TK activity or drug sensitivity to 9-β-D-arabino-furanosyl-6-methoxy-9H-purine in these four nonhepatoma cell lines infected with replication-defective, full-length, artificial retroviruses containing the ALB/VZV TK chimaera (pCR74) or AFP/VZV TK chimaera (pCR78) compared to parental cell lines which were not infected.

On to `Nc1nc(=O)[nH]cc1F` [5-FC, 5-fluorocytosine], for which the “Number of Cures” value in series [1] (WiDr:WiDr/CD (1:1) injected) is given as 4/5; in series [1] (WiDr:WiDr/CD (1:2) injected) it was 4/5; in [1] (WiDr:WiDr/CD (2:1) injected), 4/5; with WiDr/CD tumors, 3/5; with WiDr tumors (WiDR cells injected, assessed day 22), 0/5. The antitumor effects entry in series [1] (all tumor groups composed of mixtures of cells which contained WiDr/CD cells) is listed as “significant antitumor effects”. Also, the results for the IC50 in the series with WiDr/CD cells and in the series on WiDr cells were 10 to 25 µM and 10000 to 30000 µM, respectively. Besides, the effect on tumors entry in the series on WiDr tumors (WiDr tumors that do not express cytosine deaminase) was “no effect”.
As for `COc1ncnc2c1ncn2[C@@H]1O[C@H](CO)[C@@H](O)[C@@H]1O` [araM, 9-β-D-arabinofuranosyl-6-methoxy-9H-purine], in the series on HepG2 cells [2], the “cytotoxic (3H)-ara-ATP formation” value is on record as “significant amounts”. Moreover, the IC50 in the series with HuH7 cells (HuH7, no virus (control)) is approximately 1620 µM; in the series on HuH7 cells (HuH7 infected with AFP/VZV TK (pCR78) virus), 76 µM; in the series with HuH7 cells (HuH7 infected with ALB/VZV TK (pCR74) virus), 11 µM; in the series with HepG2 cells [3] (listed as 9-B-D-arabinofuranosyl-6-methoxy-9H-purine), 5 µM; in the series with HepG2 cells [3] (Homo sapiens, HepG2, 120 h) it was 6.5 µM. Besides, the “increase in drug sensitivity compared to parental cell lines not infected” value in series [4] is on record as “no increase”.
